The values that follow are results of earlier work, collected in patent US20130079315A1, “Ophthalmic Gel Compositions” (priority 2011, published 2013).

Take `CCOC(=O)O[C@]1(C(=O)OCCl)CC[C@H]2[C@@H]3CCC4=CC(=O)C=C[C@]4(C)[C@H]3[C@@H](O)C[C@@]21C` [LE, (11β,17α),-7-((Ethoxycarbonyl)oxy)-11-hydroxy-3-oxoandrosta-1,4-diene-17-carboxylic acid chloromethyl ester]: the solubility in water result was “about 0.008 mg/mL”.
